Laboratory results from patent publication US20030181389A1, “Therapeutic and prophylactic use of reduced forms of pharmaceutical compounds” (priority 2000, published 2003).
Marks after values point to notes of the source that are not given here. Blank lines part the entries; values can stand above or below the molecule they belong to.

Key:
[1] = xanthine/xanthine oxidase superoxide assay: oxidation of leuco compounds, with SOD added after sixth minute; type: biochemical; settings: for effect of addition of SOD on rate of oxidation of the leuco compound: 5 units of SOD added after the sixth minute; for oxidation of leucomethylene blue (665 nm), rate of change of optical density / oxidation of leucothionine (605 nm), rate of change of optical density: 12.5 μM
From the text: The principle upon which the following assay is based is that the enzyme xanthine oxidase acts on xanthine to oxidise xanthine and thereby to reduce ferricytochrome C by a mechanism which, at least partly, involves superoxide. Thus, the reduction (and increase) in optical density of ferricytochrome C is dependent on superoxide as a reductant. The inclusion of superoxide dismutase (“SOD”) in the assay serves to dismutate some of the available superoxide, thus causing a decrease in the rate of reduction of ferricytochrome C. […]
Superoxide is a single electron reductant or oxidant.
To explore the effect of leucothionine and leucomethylene blue, these compounds were mixed at 12.5 μM concentration in 50 mM potassium phosphate buffer (pH 7.8) with xanthine (50 μM) and EDTA (100 μM) buttermilk xanthine oxidase (around […]) was then added to give a rate of increase in absorbance of about 0.1 optical density units (for methylene blue at 665 nm and for thionine at 605 nm) per minute at 30° C. above controls using leucothionine or leucomethylene blue, potassium phosphate buffer, xanthine and EDTA alone.

[2] = direct oxidation of leuco compounds by potassium superoxide; type: biochemical; settings: for final optical density leucomethylene blue (665 nm) / direct oxidation of the leuco compound by potassium superoxide / final optical density leucothionine (605 nm): approximately 10 μM, pH 7.8; for final optical density leucomethylene blue (665 nm) / final optical density leucothionine (605 nm): potassium superoxide; for colour change of the cell: after potassium superoxide addition; for direct oxidation of the leuco compound by potassium superoxide: EDTA 100 μM
Method: In a further experiment, potassium superoxide was added to a reaction cell containing buffers, EDTA and concentrations of leucothionine and leucomethylene blue. Direct oxidation of the leuco compounds was observed by superoxide.
Potassium superoxide was added directly to nitrogen gassed potassium phosphate buffer (pH 7.8) containing EDTA (100 μM) and approximately 10 μM concentration of leucothionine and leucomethylene blue.
Due to the effervescence of the cell, a known property of potassium superoxide in water, no measurements were possible in the first 4 minutes of the reaction.

[3] = adrenochrome system: auto-oxidation of dl-epinephrine; type: biochemical; settings: dl-epinephrine 500 μM, pH 10.2; for oxidation peak of Leucomethylene blue (665 nm) / effect on appearance of adrenochrome at 310 nm / oxidation peak of Leucothionine (605 nm): 50 μM; for appearance of adrenochrome (310 nm) in presence of leuco compound: leuco compound 50 μM; for appearance of adrenochrome (310 nm) in presence of leuco compound / effect on appearance of adrenochrome at 310 nm: 30° C.
From the text: In another experiment, the results of the experiment in Example 1 above were confirmed by using the adrenochrome system. In this system, dl-epinephrine is auto-oxidised under alkaline conditions by a superoxide dependent pathway. The reaction rate of this reaction can be decreased or interrupted by the addition of SOD, which scavenges superoxide. […] In this system, the rate of auto-oxidation of dl-epinephrine is decreased by the presence of either leuco compound, while the leuco compounds themselves are oxidised by superoxide in a rate dependent manner.
In this experiment, dl-epinephrine (500 μM) was allowed to auto-oxidise in 50 mM sodium carbonate buffer (pH 10.2) containing EDTA (100 μM) at 30° C. under these conditions, epinephrine is oxidised to adrenochrome (310 or 485 nm increase in absorption).

[4] = oxygen superoxide scavenging (recent research); type: biochemical; settings: stabilised leucomethylene blue
[5] = system: haemoglobin; settings: chronic toxicity studies, laboratory animals; cited from earlier work
[6] = minute 1, before SOD, pH 7.8, 30° C.
[7] = minute 2, before SOD, pH 7.8, 30° C.
[8] = minute 3, before SOD, pH 7.8, 30° C.
[9] = minute 4, before SOD, pH 7.8, 30° C.
[10] = minute 5, before SOD, pH 7.8, 30° C.
[11] = minute 6, before SOD, pH 7.8, 30° C.
[12] = minute 7, after addition of 5 units of SOD
[13] = minute 8, after addition of 5 units of SOD
[14] = minute 9, after addition of 5 units of SOD
[15] = minute 10, after addition of 5 units of SOD
[16] = minute 11, after addition of 5 units of SOD
[17] = minute 12, after addition of 5 units of SOD

effect of addition of SOD on rate of oxidation of the leuco compound [1]: decreased the rate of oxidation | oxidation of leucomethylene blue (665 nm), rate of change of optical density [1, 6]: 0.096 | oxidation of leucomethylene blue (665 nm), rate of change of optical density [1, 7]: 0.102 | oxidation of leucomethylene blue (665 nm), rate of change of optical density [1, 8]: 0.110 | oxidation of leucomethylene blue (665 nm), rate of change of optical density [1, 9]: 0.101 | oxidation of leucomethylene blue (665 nm), rate of change of optical density [1, 10]: 0.099 | oxidation of leucomethylene blue (665 nm), rate of change of optical density [1, 11]: 0.103 | oxidation of leucomethylene blue (665 nm), rate of change of optical density [1, 12]: 0.030 * | oxidation of leucomethylene blue (665 nm), rate of change of optical density [1, 13]: 0.017 | oxidation of leucomethylene blue (665 nm), rate of change of optical density [1, 14]: 0.014 | oxidation of leucomethylene blue (665 nm), rate of change of optical density [1, 15]: 0.013 | oxidation of leucomethylene blue (665 nm), rate of change of optical density [1, 16]: 0.010 | oxidation of leucomethylene blue (665 nm), rate of change of optical density [1, 17]: 0.010
Structure (SMILES): CN(C)c1ccc2c(c1)Sc1cc(N(C)C)ccc1N2 [leucomethylene blue]
final optical density leucomethylene blue (665 nm) ([2]; 0 minutes): 0.015 | final optical density leucomethylene blue (665 nm) ([2]; 5 minutes): 0.38 | final optical density leucomethylene blue (665 nm) ([2]; 6 minutes): 0.44 | final optical density leucomethylene blue (665 nm) ([2]; 7 minutes): 0.46 | final optical density leucomethylene blue (665 nm) ([2]; 8 minutes): 0.44 | colour change of the cell [2]: colourless to blue | direct oxidation of the leuco compound by potassium superoxide [2]: rapidly oxidised to their coloured oxidised states | oxidation peak of Leucomethylene blue (665 nm) ([3]; 0 minutes): 0.006 | appearance of adrenochrome (310 nm) in presence of leuco compound ([3]; 0 minutes): 0.005 | effect on appearance of adrenochrome at 310 nm [3]: effective in reducing the appearance of adrenochrome | oxidation peak of Leucomethylene blue (665 nm) ([3]; 1 minute): 0.093 | appearance of adrenochrome (310 nm) in presence of leuco compound ([3]; 1 minute): 0.031 | oxidation peak of Leucomethylene blue (665 nm) ([3]; 2 minutes): 0.110 | appearance of adrenochrome (310 nm) in presence of leuco compound ([3]; 2 minutes): 0.021 | oxidation peak of Leucomethylene blue (665 nm) ([3]; 3 minutes): 0.120 | appearance of adrenochrome (310 nm) in presence of leuco compound ([3]; 3 minutes): 0.030 | oxidation peak of Leucomethylene blue (665 nm) ([3]; 4 minutes): 0.116 | appearance of adrenochrome (310 nm) in presence of leuco compound ([3]; 4 minutes): 0.035 | oxidation peak of Leucomethylene blue (665 nm) ([3]; 5 minutes): 0.121 | appearance of adrenochrome (310 nm) in presence of leuco compound ([3]; 5 minutes): 0.031 | oxidation peak of Leucomethylene blue (665 nm) ([3]; 6 minutes): 0.119 | appearance of adrenochrome (310 nm) in presence of leuco compound ([3]; 6 minutes): 0.038 | oxygen superoxide scavenging [4]: powerful oxygen superoxide scavenger

effect of addition of SOD on rate of oxidation of the leuco compound [1]: decreased the rate of oxidation | oxidation of leucothionine (605 nm), rate of change of optical density [1, 6]: 0.086 | oxidation of leucothionine (605 nm), rate of change of optical density [1, 7]: 0.093 | oxidation of leucothionine (605 nm), rate of change of optical density [1, 8]: 0.093 | oxidation of leucothionine (605 nm), rate of change of optical density [1, 9]: 0.095 | oxidation of leucothionine (605 nm), rate of change of optical density [1, 10]: 0.101 | oxidation of leucothionine (605 nm), rate of change of optical density [1, 11]: 0.096 | oxidation of leucothionine (605 nm), rate of change of optical density [1, 12]: 0.041 * | oxidation of leucothionine (605 nm), rate of change of optical density [1, 13]: 0.009 | oxidation of leucothionine (605 nm), rate of change of optical density [1, 14]: 0.009 | oxidation of leucothionine (605 nm), rate of change of optical density [1, 15]: 0.011 | oxidation of leucothionine (605 nm), rate of change of optical density [1, 16]: 0.008 | oxidation of leucothionine (605 nm), rate of change of optical density [1, 17]: 0.009
Structure (SMILES): Nc1ccc2c(c1)Sc1cc(N)ccc1N2 [leucothionine]
final optical density leucothionine (605 nm) ([2]; 0 minutes): 0.035 | final optical density leucothionine (605 nm) ([2]; 5 minutes): 0.42 | final optical density leucothionine (605 nm) ([2]; 6 minutes): 0.45 | final optical density leucothionine (605 nm) ([2]; 7 minutes): 0.45 | final optical density leucothionine (605 nm) ([2]; 8 minutes): 0.46 | colour change of the cell [2]: purple | direct oxidation of the leuco compound by potassium superoxide [2]: rapidly oxidised to their coloured oxidised states | oxidation peak of Leucothionine (605 nm) ([3]; 0 minutes): 0.007 | appearance of adrenochrome (310 nm) in presence of leuco compound ([3]; 0 minutes): 0.005 | effect on appearance of adrenochrome at 310 nm [3]: effective in reducing the appearance of adrenochrome | oxidation peak of Leucothionine (605 nm) ([3]; 1 minute): 0.083 | appearance of adrenochrome (310 nm) in presence of leuco compound ([3]; 1 minute): 0.034 | oxidation peak of Leucothionine (605 nm) ([3]; 2 minutes): 0.121 | appearance of adrenochrome (310 nm) in presence of leuco compound ([3]; 2 minutes): 0.027 | oxidation peak of Leucothionine (605 nm) ([3]; 3 minutes): 0.110 | appearance of adrenochrome (310 nm) in presence of leuco compound ([3]; 3 minutes): 0.033 | oxidation peak of Leucothionine (605 nm) ([3]; 4 minutes): 0.114 | appearance of adrenochrome (310 nm) in presence of leuco compound ([3]; 4 minutes): 0.034 | oxidation peak of Leucothionine (605 nm) ([3]; 5 minutes): 0.116 | appearance of adrenochrome (310 nm) in presence of leuco compound ([3]; 5 minutes): 0.028 | oxidation peak of Leucothionine (605 nm) ([3]; 6 minutes): 0.120 | appearance of adrenochrome (310 nm) in presence of leuco compound ([3]; 6 minutes): 0.032

Structure (SMILES): CN(C)c1ccc2nc3ccc(=[N+](C)C)cc-3sc2c1 [methylene blue]
haematological toxicity on repeated administration of high doses [5]: causes oxidation of haemoglobin to methaemoglobin and tissue accumulation of Heinz bodies
